# Biological target: FGFR2 (Homo sapiens, UniProt P21802)
# Test: FGFR wild type enzyme assay (HTRF KinEASE-TK), FGFR2
# Details: Enz FGFR2 (nM), FGFR2 wild type enzyme assay
# Sequence of FGFR2 (P21802 399-821 limits assumed): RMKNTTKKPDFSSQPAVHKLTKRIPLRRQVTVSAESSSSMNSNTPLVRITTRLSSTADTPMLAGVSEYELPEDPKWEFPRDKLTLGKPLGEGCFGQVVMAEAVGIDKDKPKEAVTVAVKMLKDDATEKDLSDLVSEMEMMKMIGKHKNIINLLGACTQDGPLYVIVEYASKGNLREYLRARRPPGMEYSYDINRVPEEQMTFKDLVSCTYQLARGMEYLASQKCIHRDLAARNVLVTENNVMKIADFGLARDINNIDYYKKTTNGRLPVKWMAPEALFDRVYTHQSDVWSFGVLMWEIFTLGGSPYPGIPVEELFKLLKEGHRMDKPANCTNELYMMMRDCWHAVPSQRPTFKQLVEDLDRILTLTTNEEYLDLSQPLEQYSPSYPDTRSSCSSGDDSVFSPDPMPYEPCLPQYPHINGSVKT
row,IC50,SMILES
1,0.5 nM,"Cc1c(-c2cc(Sc3ccc(F)cc3C#N)c3c(C#N)cnn3c2)cnn1[C@H]1CC[C@](C)(N)CC1 [Example 351, 6-(1-((1r,4r)-4-amino-4-methylcyclohexyl)-5-methyl-1H-pyrazol-4-yl)-4-((2-cyano-4-fluorophenyl)thio)pyrazolo [1,5-a]pyridine-3-carbonitrile]"
2,0.6 nM,"CN[C@]1(C)CC[C@@H](n2ncc(-c3cc(Sc4ccc(F)cc4C#N)c4c(C#N)cnn4c3)c2C)CC1 [Example 352, 4-((2-cyano-4-fluorophenyl)thio)-6-(5-methyl-1-((1r,4r)-4-methyl-4-(methylamino)cyclohexyl)-1H-pyrazol-4-y)pyrazolo[1,5-a]pyridine-3-carbonitrile]"
3,1 nM,"Cc1c(-c2cc(Sc3ccc(F)cc3C#N)c3c(C#N)cnn3c2)cnn1C1CCN(CCO)CC1 [Example 353, 4-((2-cyano-4-fluorophenyl)thio)-6-(1-(1-(2-hydroxyethyl)piperidin-4-yl)-5-methyl-1H-pyrazol-4-yl)pyrazolo[1,5-a]pyridine-3-carbonitrile]"
4,2.5 nM,"Cc1c(-c2cc(Sc3ccc(F)cc3C#N)c3c(C#N)cnn3c2)cnn1C1CCN(C[C@H](C)O)CC1 [Example 354, (S)-4-((2-cyano-4-fluorophenyl)thio)-6-(1-(1-(2-hydroxypropyl)piperidin-4-yl)-5-methyl-1H-pyrazol-4-yl)pyrazolo[1,5-a]pyridine-3-carbonitrile]"
5,2 nM,"Cc1ccc(C#N)c(Sc2cc(-c3cnn(C4CCN(C)CC4)c3C)cn3ncc(C#N)c23)c1 [Example 357, 4-((2-cyano-5-methylphenyl)thio)-6-(5-methyl-1-(1-methylpiperidin-4-yl)-1H-pyrazol-4-yl)pyrazolo[1,5-a]pyridine-3-carbonitrile]"
6,1.5 nM,"Cc1c(-c2cc(Sc3cc(F)ccc3C#N)c3c(C#N)cnn3c2)cnn1C1CCN(C)CC1 [Example 359, 4-((2-cyano-5-fluorophenyl)thio)-6-(5-methyl-1-(1-methylpiperidin-4-yl)-1H-pyrazol-4-yl)pyrazolo[1,5-a]pyridine-3-carbonitrile]"
7,2 nM,"Cc1c(-c2cc(Sc3ccc(F)cc3C#N)c3c(C#N)cnn3c2)cnn1C1CCN(C(=O)[C@H](C)O)CC1 [Example 360, (S)-4-((2-cyano-4-fluorophenyl)thio)-6-(1-(1-(2-hydroxypropanoyl)piperidin-4-yl)-5-methyl-1H-pyrazol-4-yl)pyrazolo[1,5-a]pyridine-3-carbonitrile]"
8,2 nM,"COC(=O)N1CCC(n2ncc(-c3cc(Sc4ccc(F)cc4C#N)c4c(C#N)cnn4c3)c2C)CC1 [Example 361, methyl 4-(4-(3-cyano-4-((2-cyano-4-fluorophenyl)thio)pyrazolo [1,5-a]pyridin-6-yl)-5-methyl-1H-pyrazol-1-yl)piperidine-1-carboxylate]"
9,1 nM,"COC(=O)N[C@H]1CC[C@@H](n2ncc(-c3cc(Sc4ccc(F)cc4C#N)c4c(C#N)cnn4c3)c2C)CC1 [Example 362, methyl ((1s,4s)-4-(4-(3-cyano-4-((2-cyano-4-fluorophenyl)thio)pyrazolo [1,5-a]pyridin-6-yl)-5-methyl-1H-pyrazol-1-yl)cyclohexyl)carbamate]"
10,2 nM,"COC(=O)N1CCC[C@H](n2ncc(-c3cc(Sc4ccc(F)cc4C#N)c4c(C#N)cnn4c3)c2C)C1 [Example 363, methyl (S)-3-(4-(3-cyano-4-((2-cyano-4-fluorophenyl)thio)pyrazolo [1,5-a]pyridin-6-yl)-5-methyl-1H-pyrazol-1-yl)piperidine-1-carboxylate]"
11,3 nM,"COC(=O)N[C@]1(C)CC[C@H](n2ncc(-c3cc(Sc4ccc(F)cc4C#N)c4c(C#N)cnn4c3)c2C)CC1 [Example 364, methyl ((1s,4s)-4-(4-(3-cyano-4-((2-cyano-4-fluorophenyl)thio)pyrazolo [1,5-a]pyridin-6-yl)-5-methyl-1H-pyrazol-1-yl)-1-methylcyclohexyl)carba-mate]"
12,2 nM,"COC(=O)N1[C@@H]2CC[C@H]1C[C@H](n1ncc(-c3cc(Sc4ccc(F)cc4C#N)c4c(C#N)cnn4c3)c1C)C2 [Example 365, methyl (1R,3s,5S)-3-(4-(3-cyano-4-((2-cyano-4-fluorophenyl)thio)pyrazolo [1,5-a]pyridin-6-yl)-5-methyl-1H-pyrazol-1-yl)-8-azabicyclo[3.2.1]octane-8-carboxylate]"
13,0.6 nM,"Cc1c(-c2cc(Sc3ccc(F)cc3C#N)c3c(C#N)cnn3c2)cnn1[C@@H]1C[C@H]2CC[C@@H](C1)N2 [Example 366, 6-(1-((1R,3s,5S)-8-azabicyclo[3.2.1]octan-3-yl)-5-methyl-1H-pyrazol-4-yl)-4-((2-cyano-4-fluorophenyl)thio)pyrazolo [1,5-a]pyridine-3-carbonitrile]"
14,5 nM,"Cc1c(-c2cc(Sc3ccc(Cl)cc3C#N)c3c(C#N)cnn3c2)cnn1C1CCN(C)CC1 [Example 369, 4-((4-chloro-2-cyanophenyl)thio)-6-(5-methyl-1-(1-methylpiperidin-4-yl)-1H-pyrazol-4-yl)pyrazolo[1,5-a]pyridine-3-carbonitrile]"

# The next lines start with the molecule.
row,SMILES,IC50
1,"Cc1c(-c2cc(Sc3ccc(F)cn3)c3c(C#N)cnn3c2)cnn1C1CCN(C(=O)[C@H](C)O)CC1 [Example 341, (S)-4-((5-fluoropyridin-2-yl)thio)-6-(1-(1-(2-hydroxypropanoyl)piperidin-4-yl)-5-methyl-1H-pyrazol-4-yl)pyrazolo[1,5-a]pyridine-3-carbonitrile]",9 nM
2,"Cc1c(-c2cc(Sc3ncc(F)cc3F)c3c(C#N)cnn3c2)cnn1C1CCN(C(=O)[C@H](C)O)CC1 [Example 342, (S)-4-((3,5-difluoropyridin-2-yl)thio)-6-(1-(1-(2-hydroxypropanoyl)piperidin-4-yl)-5-methyl-1H-pyrazol-4-yl)pyrazolo[1,5-a]pyridine-3-carbonitrile]",6 nM
3,"Cc1c(-c2cc(Sc3ccc(F)cn3)c3c(C#N)cnn3c2)cnn1[C@H]1CCCN(C)C1 [Example 343, (S)-4-((5-fluoropyridin-2-yl)thio)-6-(5-methyl-1-(1-methylpiperidin-3-yl)-1H-pyrazol-4-yl)pyrazolo[1,5-a]pyridine-3-carbonitrile]",9 nM
4,"Cc1c(-c2cc(Sc3ncc(F)cc3F)c3c(C#N)cnn3c2)cnn1[C@H]1CC[C@@H](NC(=O)CO)CC1 [Example 344, N-((1s,4s)-4-(4-(3-cyano-4-((3,5-difluoropyridin-2-yl)thio)pyrazolo[1,5-a]pyridin-6-yl)-5-methyl-1H-pyrazol-1-yl)cyclohexyl)-2-hydroxyacetamide]",3 nM
5,"Cc1c(-c2cc(Sc3ncc(F)cc3F)c3c(C#N)cnn3c2)cnn1[C@H]1CCCNC1 [Example 345, (S)-4-((3,5-difluoropyridin-2-yl)thio)-6-(5-methyl-1-(piperidin-3-yl)-1H-pyrazol-4-yl)pyrazolo[1,5-a]pyridine-3-carbonitrile]",4 nM
6,"Cc1c(-c2cc(Sc3ncc(F)cc3F)c3c(C#N)cnn3c2)cnn1[C@H]1CCCN(C)C1 [Example 346, (S)-4-((3,5-difluoropyridin-2-yl)thio)-6-(5-methyl-1-(1-methylpiperidin-3-yl)-1H-pyrazol-4-yl)pyrazolo[1,5-a]pyridine-3-carbonitrile]",5 nM
7,"CN[C@H]1CC[C@H](n2ncc(-c3cc(Sc4ccccn4)c4c(C#N)cnn4c3)c2C)CC1 [Example 347, 6-(5-methyl-1-((1r,4r)-4-(methylamino)cyclohexyl)-1H-pyrazol-4-yl)-4-(pyridin-2-ylthio)pyrazolo[1,5-a]pyridine-3-carbonitrile]",2.5 nM
8,"CN[C@]1(C)CC[C@H](n2ncc(-c3cc(Sc4ccccn4)c4c(C#N)cnn4c3)c2C)CC1 [Example 348, 6-(5-methyl-1-((1s,4s)-4-methyl-4-(methylamino)cyclohexyl)-1H-pyrazol-4-yl)-4-(pyridin-2-ylthio)pyrazolo[1,5-a]pyridine-3-carbonitrile]",2 nM
9,"CC(=O)N[C@H]1CC[C@@H](n2cc(-c3cc(Sc4ccc(F)cn4)c4c(C#N)cnn4c3)cn2)CC1 [Example 349, N-((1s,4s)-4-(4-(3-cyano-4-((5-fluoropyridin-2-yl)thio)pyrazolo[1,5-a]pyridin-6-yl)-1H-pyrazol-1-yl)cyclohexyl)acetamide]",3 nM
10,"CC(=O)N[C@H]1CC[C@H](n2cc(-c3cc(Sc4ccccc4C#N)c4c(C#N)cnn4c3)cn2)C1 [Example 350, N-((1s,3S)-3-(4-(3-cyano-4-((2-cyanophenyl)thio)pyrazolo [1,5-a]pyridin-6-yl)-1H-pyrazol-1-yl)cyclopentyl)acetamide]",0.5 nM
11,"Cc1cccc(Sc2cc(-c3cnn(C4CCN(C)CC4)c3C)cn3ncc(C#N)c23)c1C#N [Example 355, 4-((2-cyano-3-methylphenyl)thio)-6-(5-methyl-1-(1-methylpiperidin-4-yl)-1H-pyrazol-4-yl)pyrazolo[1,5-a]pyridine-3-carbonitrile]",2 nM
12,"Cc1c(-c2cc(Sc3cccc(F)c3C#N)c3c(C#N)cnn3c2)cnn1C1CCN(C)CC1 [Example 356, 4-((2-cyano-3-fluorophenyl)thio)-6-(5-methyl-1-(1-methylpiperidin-4-yl)-1H-pyrazol-4-yl)pyrazolo[1,5-a]pyridine-3-carbonitrile]",10 nM
13,"Cc1c(-c2cc(Sc3cc(Cl)ccc3C#N)c3c(C#N)cnn3c2)cnn1C1CCN(C)CC1 [Example 358, 4-((5-chloro-2-cyanophenyl)thio)-6-(5-methyl-1-(1-methylpiperidin-4-yl)-1H-pyrazol-4-yl)pyrazolo[1,5-a]pyridine-3-carbonitrile]",2 nM
14,"N#Cc1ccccc1Sc1cc(-c2cnn(C3CCS(=O)(=O)CC3)c2)cn2ncc(C#N)c12 [Example 367, 4-((2-cyanophenyl)thio)-6-(1-(1,1-dioxidotetrahydro-2H-thiopyran-4-yl)-1H-pyrazol-4-yl)pyrazolo[1,5-a]pyridine-3-carbonitrile]",0.4 nM
15,"CC(=O)N[C@@H]1CC[C@@H](n2cc(-c3cc(Sc4ccccc4C#N)c4c(C#N)cnn4c3)cn2)C1 [Example 368, N-((1R,3R)-3-(4-(3-cyano-4-((2-cyanophenyl)thio)pyrazolo [1,5-a]pyridin-6-yl)-1H-pyrazol-1-yl)cyclopentyl)acetamide]",0.4 nM
